# According to ChEMBL document CHEMBL2010711, “Synthesis and comparative evaluation of 4-oxa- and 4-aza-podophyllotoxins as antiproliferative microtubule destabilizing agents” (Bioorg Med Chem Lett, 2012):
# Calls of active or inactive are those of the source.
# Tests used:
# [1] = system: NCI-H23; assay: Cytotoxicity against human NCI-H23 cells after 48 hrs by trypan blue dye exclusion assay; type: functional; settings: NCI-H23, 48 h
# [2] = system: T47D; assay: Cytotoxicity against human T47D cells after 48 hrs by trypan blue dye exclusion assay; type: functional
# [3] = system: MDA-MB-231; assay: Cytotoxicity against human MDA-MB-231 cells after 48 hrs by trypan blue dye exclusion assay; type: functional; settings: MDA-MB-231, 48 h
# [4] = system: SNB-75; assay: Cytotoxicity against human SNB75 cells after 48 hrs by trypan blue dye exclusion assay; type: functional; settings: SNB-75, 48 h
# [5] = system: RXF 393; assay: Cytotoxicity against human RXF393 cells after 48 hrs by trypan blue dye exclusion assay; type: functional; settings: RXF 393, 48 h
# [6] = system: MCF7; assay: Cytotoxicity against human MCF7 cells after 48 hrs by trypan blue dye exclusion assay; type: functional; settings: MCF7, 48 h
# [7] = system: HCC 2998; assay: Cytotoxicity against human HCC2998 cells after 48 hrs by trypan blue dye exclusion assay; type: functional; settings: HCC 2998, 48 h
# [8] = system: Paracentrotus lividus; assay: Antimitotic activity against Paracentrotus lividus embryo assessed as cleavage alteration at 2 fold less effective threshold concentration after 2.5 to 6 hrs; type: functional, organism-based
# [9] = system: OVCAR-5; assay: Cytotoxicity against human OVCAR5 cells after 48 hrs by trypan blue dye exclusion assay; type: functional; settings: OVCAR-5, 48 h
# [10] = system: HOP-92; assay: Cytotoxicity against human HOP92 cells after 48 hrs by trypan blue dye exclusion assay; type: functional; settings: HOP-92, 48 h
# [11] = system: SNB-19; assay: Cytotoxicity against human SNB19 cells after 48 hrs by trypan blue dye exclusion assay; type: functional; settings: SNB-19, 48 h
# [12] = system: SF-268; assay: Cytotoxicity against human SF268 cells after 48 hrs by trypan blue dye exclusion assay; type: functional; settings: SF-268, 48 h
# [13] = system: U-251; assay: Cytotoxicity against human U251 cells after 48 hrs by trypan blue dye exclusion assay; type: functional; settings: U-251, 48 h
# [14] = system: OVCAR-3; assay: Cytotoxicity against human OVCAR3 cells after 48 hrs by trypan blue dye exclusion assay; type: functional; settings: OVCAR-3, 48 h
# [15] = system: OVCAR-8; assay: Cytotoxicity against human OVCAR8 cells after 48 hrs by trypan blue dye exclusion assay; type: functional; settings: OVCAR-8, 48 h
# [16] = system: NCI-H522; assay: Cytotoxicity against human NCI-H522 cells after 48 hrs by trypan blue dye exclusion assay; type: functional; settings: NCI-H522, 48 h
# [17] = system: A498; assay: Cytotoxicity against human A498 cells after 48 hrs by trypan blue dye exclusion assay; type: functional; settings: A498, 48 h
# [18] = system: MDA-MB-468; assay: Cytotoxicity against human MDA-MB-468 cells after 48 hrs by trypan blue dye exclusion assay; type: functional; settings: MDA-MB-468, 48 h
# [19] = system: Paracentrotus lividus; assay: Antimitotic activity against Paracentrotus lividus embryo assessed as cleavage arrest at 2 fold less effective threshold concentration after 2.5 to 6 hrs; type: functional, organism-based
# [20] = system: M14; assay: Cytotoxicity against human M14 cells after 48 hrs by trypan blue dye exclusion assay; type: functional; settings: M14, 48 h
# [21] = system: HL-60(TB); assay: Cytotoxicity against human HL-60(TB) cells after 48 hrs by trypan blue dye exclusion assay; type: functional; settings: HL-60, 48 h
# [22] = system: SF-539; assay: Cytotoxicity against human SF539 cells after 48 hrs by trypan blue dye exclusion assay; type: functional; settings: SF-539, 48 h
# [23] = system: CAKI-1; assay: Cytotoxicity against human CAKI-1 cells after 48 hrs by trypan blue dye exclusion assay; type: functional; settings: CAKI-1, 48 h
# [24] = system: MDA-MB-435; assay: Cytotoxicity against human MDA-MB-435 cells after 48 hrs by trypan blue dye exclusion assay; type: functional; settings: MDA-MB-435, 48 h
# [25] = system: BT-549; assay: Cytotoxicity against human BT549 cells after 48 hrs by trypan blue dye exclusion assay; type: functional; settings: BT-549, 48 h
# [26] = system: NCI/ADR-RES; assay: Cytotoxicity against human NCI/ADR-RES cells after 48 hrs by trypan blue dye exclusion assay; type: functional
# [27] = system: IGROV-1; assay: Cytotoxicity against human IGROV1 cells after 48 hrs by trypan blue dye exclusion assay; type: functional; settings: IGROV-1, 48 h
# [28] = system: RPMI-8226; assay: Cytotoxicity against human RPMI8226 cells after 48 hrs by trypan blue dye exclusion assay; type: functional; settings: RPMI-8226, 48 h
# [29] = system: CCRF-CEM; assay: Cytotoxicity against human CCRF-CEM cells after 48 hrs by trypan blue dye exclusion assay; type: functional
# [30] = system: LOX IMVI; assay: Cytotoxicity against human LOXIMVI cells after 48 hrs by trypan blue dye exclusion assay; type: functional
# [31] = system: UO-31; assay: Cytotoxicity against human UO31 cells after 48 hrs by trypan blue dye exclusion assay; type: functional; settings: UO-31, 48 h
# [32] = system: KM12; assay: Cytotoxicity against human KM12 cells after 48 hrs by trypan blue dye exclusion assay; type: functional; settings: KM12, 48 h
# [33] = system: DU-145; assay: Cytotoxicity against human DU145 cells after 48 hrs by trypan blue dye exclusion assay; type: functional; settings: DU-145, 48 h
# [34] = system: NCI-H226; assay: Cytotoxicity against human NCI-H226 cells after 48 hrs by trypan blue dye exclusion assay; type: functional; settings: NCI-H226, 48 h
# [35] = system: SK-MEL-2; assay: Cytotoxicity against human SK-MEL-2 cells after 48 hrs by trypan blue dye exclusion assay; type: functional; settings: SK-MEL-2, 48 h
# [36] = system: A549; assay: Cytotoxicity against human A549 cells after 48 hrs by trypan blue dye exclusion assay; type: functional; settings: A549, 48 h
# [37] = system: NCI-H460; assay: Cytotoxicity against human NCI-H460 cells after 48 hrs by trypan blue dye exclusion assay; type: functional; settings: NCI-H460, 48 h
# [38] = system: HCT-116; assay: Cytotoxicity against human HCT116 cells after 48 hrs by trypan blue dye exclusion assay; type: functional; settings: HCT-116, 48 h
# [39] = system: PC-3; assay: Cytotoxicity against human PC3 cells after 48 hrs by trypan blue dye exclusion assay; type: functional; settings: PC-3, 48 h
# [40] = system: EKVX; assay: Cytotoxicity against human EKVX cells after 48 hrs by trypan blue dye exclusion assay; type: functional
# [41] = system: SF-295; assay: Cytotoxicity against human SF295 cells after 48 hrs by trypan blue dye exclusion assay; type: functional; settings: SF-295, 48 h
# [42] = system: Paracentrotus lividus; assay: Microtubule destabilizing activity in Paracentrotus lividus embryo assessed as embryo spinning at 2 fold less effective threshold concentration after 15 mins to 20 hrs; type: functional, organism-based
# [43] = system: SR; assay: Cytotoxicity against human SR cells after 48 hrs by trypan blue dye exclusion assay; type: functional
# [44] = system: OVCAR-4; assay: Cytotoxicity against human OVCAR4 cells after 48 hrs by trypan blue dye exclusion assay; type: functional; settings: OVCAR-4, 48 h
# [45] = system: UACC-257; assay: Cytotoxicity against human UACC257 cells after 48 hrs by trypan blue dye exclusion assay; type: functional; settings: UACC-257, 48 h
# [46] = system: SK-MEL-5; assay: Cytotoxicity against human SK-MEL-5 cells after 48 hrs by trypan blue dye exclusion assay; type: functional; settings: SK-MEL-5, 48 h
# [47] = system: HT-29; assay: Cytotoxicity against human HT-29 cells after 48 hrs by trypan blue dye exclusion assay; type: functional; settings: HT-29, 48 h
# [48] = system: SK-MEL-28; assay: Cytotoxicity against human SK-MEL-28 cells after 48 hrs by trypan blue dye exclusion assay; type: functional; settings: SK-MEL-28, 48 h
# [49] = system: HCT-15; assay: Cytotoxicity against human HCT15 cells after 48 hrs by trypan blue dye exclusion assay; type: functional; settings: HCT-15, 48 h
# [50] = system: NCI-H322M; assay: Cytotoxicity against human NCI-H322M cells after 48 hrs by trypan blue dye exclusion assay; type: functional
# [51] = system: 786-0; assay: Cytotoxicity against human 786-0 cells after 48 hrs by trypan blue dye exclusion assay; type: functional; settings: 786-0, 48 h
# [52] = Cytotoxicity against human Hs 578T cells after 48 hrs by trypan blue dye exclusion assay; type: functional
# [53] = system: SK-OV-3; assay: Cytotoxicity against human SKOV3 cells after 48 hrs by trypan blue dye exclusion assay; type: functional; settings: SK-OV-3, 48 h
# [54] = system: MOLT-4; assay: Cytotoxicity against human MOLT4 cells after 48 hrs by trypan blue dye exclusion assay; type: functional; settings: MOLT-4, 48 h
# [55] = system: COLO 205; assay: Cytotoxicity against human COLO205 cells after 48 hrs by trypan blue dye exclusion assay; type: functional; settings: COLO 205, 48 h
# [56] = system: SW-620; assay: Cytotoxicity against human SW620 cells after 48 hrs by trypan blue dye exclusion assay; type: functional; settings: SW-620, 48 h
# [57] = system: UACC-62; assay: Cytotoxicity against human UACC62 cells after 48 hrs by trypan blue dye exclusion assay; type: functional; settings: UACC-62, 48 h
# [58] = system: SN12C; assay: Cytotoxicity against human SN12C cells after 48 hrs by trypan blue dye exclusion assay; type: functional
# [59] = system: Malme-3M; assay: Cytotoxicity against human MALME-3M cells after 48 hrs by trypan blue dye exclusion assay; type: functional
# [60] = system: ACHN; assay: Cytotoxicity against human ACHN cells after 48 hrs by trypan blue dye exclusion assay; type: functional
# [61] = system: TK-10; assay: Cytotoxicity against human TK10 cells after 48 hrs by trypan blue dye exclusion assay; type: functional; settings: TK-10, 48 h
compound,measurement,setting,value
COc1ccc2c(c1)C(c1cc(OC)c3c(c1)OCO3)C1=C(COC1=O)N2 (stereo unspecified),GI50,[1],317 nM
same,GI50,[2],50500 nM
same,GI50,[3],698 nM
same,GI50,[4],48.7 nM
same,GI50,[5],130 nM
same,GI50,[6],254 nM
same,GI50,[7],568 nM
same,Activity,[8],inactive
same,GI50,[9],629 nM
same,GI50,[10],425 nM
same,GI50,[11],518 nM
same,GI50,[12],805 nM
same,GI50,[13],805 nM
same,GI50,[14],234 nM
same,GI50,[15],595 nM
same,GI50,[16],348 nM
same,GI50,[17],138 nM
same,GI50,[18],230 nM
same,Activity,[19],inactive
same,GI50,[20],247 nM
same,GI50,[21],287 nM
same,GI50,[22],359 nM
same,GI50,[23],709 nM
same,GI50,[24],49 nM
same,GI50,[25],1190 nM
same,GI50,[26],289 nM
same,GI50,[27],679 nM
same,GI50,[28],494 nM
same,GI50,[29],424 nM
same,GI50,[30],702 nM
same,GI50,[31],33100 nM
same,GI50,[32],254 nM
same,GI50,[33],399 nM
same,GI50,[34],23300 nM
same,GI50,[35],429 nM
same,GI50,[36],491 nM
same,GI50,[37],19200 nM
same,GI50,[38],457 nM
same,GI50,[39],358 nM
same,GI50,[40],982 nM
same,GI50,[41],82.5 nM
same,Activity,[42],inactive
same,GI50,[43],324 nM
same,GI50,[44],762 nM
same,GI50,[45],> 100000 nM
same,GI50,[46],269 nM
same,GI50,[47],326 nM
same,GI50,[48],206 nM
same,GI50,[49],485 nM
same,GI50,[50],283 nM
same,GI50,[51],594 nM
same,GI50,[52],199 nM
same,GI50,[53],318 nM
same,GI50,[54],569 nM
same,GI50,[55],268 nM
same,GI50,[56],377 nM
same,GI50,[57],88.1 nM
same,GI50,[58],622 nM
same,GI50,[59],> 100000 nM
same,GI50,[60],1570 nM
same,GI50,[61],> 100000 nM
